Test results: the NIST ThermoML archive (doi:10.1016/j.jct.2019.06.032)

Assay: xn = mol fraction of the nth substance listed
Conditions: 101 kPa, Liquid; for viscosity: Capillary tube (Ostwald / Ubbelohde) method; for mass density: Vibrating tube method

NCCO [2-aminoethan-1-ol] + O
Conditions | mass density, 293.15 K [kg/m3] | mass density, 303.15 K [kg/m3] | mass density, 313.15 K [kg/m3] | mass density, 323.15 K [kg/m3] | mass density, 333.15 K [kg/m3] | viscosity, 293.15 K [mPa·s] | viscosity, 303.15 K [mPa·s] | viscosity, 313.15 K [mPa·s] | viscosity, 323.15 K [mPa·s] | viscosity, 333.15 K [mPa·s]
x1 = 0.1 | 1010.9 | 1007 | 1002.5 | 997.4 | 991.7 | 2.669 | 1.953 | 1.495 | 1.147 | 0.903
x1 = 0.1999 | 1021.1 | 1016 | 1010.6 | 1004.4 | 998 | 5.763 | 3.976 | 2.388 | 1.819 | 1.429
x1 = 0.2998 | 1027.1 | 1021 | 1014.3 | 1007.5 | 1000.5 | 10.28 | 6.221 | 4.011 | 3 | 2.268
x1 = 0.4 | 1029.4 | 1022.6 | 1015.5 | 1008.3 | 1000.8 | 15.22 | 9.814 | 6.589 | 4.621 | 3.387
x1 = 0.4998 | 1029.3 | 1022 | 1014.6 | 1007 | 999.4 | 19.75 | 12.4 | 8.077 | 5.671 | 4.071
x1 = 0.5995 | 1028.1 | 1020.3 | 1012.7 | 1004.9 | 997 | 22.83 | 14.17 | 9.474 | 6.412 | 4.784
x1 = 0.6982 | 1026.3 | 1018 | 1010.4 | 1002.8 | 994.9 | 24.37 | 15.25 | 10.05 | 7.035 | 4.978
x1 = 0.7974 | 1023.8 | 1015.1 | 1007.1 | 999.4 | 991.5 | 25.19 | 15.62 | 10.09 | 7.169 | 5.014
x1 = 0.8995 | 1021.2 | 1013 | 1005.1 | 997.2 | 988.1 | 24.62 | 15.17 | 10.08 | 7.12 | 5.001
x1 = 1 | 1016.9 | 1009.5 | 1001.1 | 992.7 | 984.3 | 23.79 | 14.83 | 9.89 | 6.872 | 4.99

CCN(CC)CCO [(diethylamino)ethanol] + O
Conditions | mass density, 293.15 K [kg/m3] | mass density, 303.15 K [kg/m3] | mass density, 313.15 K [kg/m3] | mass density, 323.15 K [kg/m3] | mass density, 333.15 K [kg/m3] | viscosity, 293.15 K [mPa·s] | viscosity, 303.15 K [mPa·s] | viscosity, 313.15 K [mPa·s] | viscosity, 323.15 K [mPa·s] | viscosity, 333.15 K [mPa·s]
x1 = 0.1001 | 982 | 974.2 | 966.6 | 958.5 | 950.1 | 7.938 | 5.548 | 3.741 | 2.623 | 1.94
x1 = 0.2005 | 962.4 | 953 | 944.3 | 935 | 925.6 | 17.02 | 10.01 | 6.284 | 4.233 | 2.937
x1 = 0.2997 | 946.6 | 936.8 | 926.9 | 917.5 | 907.6 | 20.5 | 11.01 | 7.194 | 4.584 | 3.15
x1 = 0.3978 | 933.4 | 923.2 | 913.9 | 903.7 | 893.9 | 20.32 | 9.991 | 6.145 | 4.058 | 2.963
x1 = 0.4997 | 922.2 | 912 | 901.8 | 892 | 882.4 | 17.73 | 9.074 | 5.477 | 3.605 | 2.593
x1 = 0.5992 | 914.4 | 903.2 | 892.8 | 882.3 | 872.5 | 14.8 | 8.421 | 5.078 | 3.05 | 2.4
x1 = 0.6897 | 906.3 | 894.8 | 884.2 | 873.9 | 864.7 | 12.42 | 7.125 | 4.663 | 2.692 | 2.102
x1 = 0.7997 | 899.6 | 887.4 | 876.9 | 867.4 | 857.3 | 9.723 | 6.002 | 3.878 | – | 1.794
x1 = 0.8997 | 895.5 | 880.8 | 870.7 | 861.4 | 851.9 | 7.341 | 4.868 | 3.402 | 2.141 | 1.619
x1 = 1 | 891.2 | 874.4 | 865.4 | 856.4 | 845.6 | 4.848 | 3.41 | 2.466 | 1.855 | 1.431
